The values below come from patent publication US20160184274A1, “Methods for inhibiting mesenchymal phenotype after epithelial-to-mesenchymal transition” (Fibrostatin, S.L., priority 2014, published 2016).

Assay [1] relates to mesenchymal A549 spheroids. As to the kind of experiment: Spheroid viability / cell death by LDH activity in media. It is filed as cell-based, Human. The following applies: T12 10 μM for the last 2 days of 4-day EMT induction; FIG. 7B. As for the experimental part:
FIG. 7. T12 disrupts collagen IV network and reduces A549 mesenchymal spheroids viability. A549 spheroids were subjected to EMT induction with TGF-β and TNF-α during 4 days, and treated with T12 (10 μM) or maintained untreated (Cont) for the last 2 days. In A, spheroids were analyzed by immunofluorescence confocal microscopy with anti-α1α2 (IV) antibodies (COL4, white) and DAPI to visualize the cell nuclei (grey). In B, the culture media of the spheroids in A were used for assessing cell death by measuring LDH activity. […] Represented are Means (±SEM).
For some purposes, culture media were cleared by centrifugation (500×g, 10 min, room temperature) and LDH activity in supernatants determined with Lactate Dehydrogenase Activity Assay Kit (Sigma-Aldrich).
Three-dimensional spheroid cultures of A549 cells were obtained using a hanging droplet method (Kelm et al., 2003. Biotechnol. Bioeng. 83: 173-180.; Kumar et al., 2013. PLoS One. 8: e68597). Briefly, cells were grown to approximately 80% confluence on adherent tissue-culture flasks. Then cells were trypsinized, dispersed in DMEM/10% FBS, and counted using an automated cell counter (MOXI® Z, Orflo). The cell suspension was diluted to a 10^6 cells/mL-concentration, and 25 μl of the cell suspension were pipetted onto the underside of a sterile 10-cm tissue culture plate lid. Each lid was loaded with approximately 55 droplets. […]

In assay [2] the test system is A549 tumors displaying mesenchymal phenotype. The experiment in a line: A549 xenograft, tumors with mesenchymal phenotype. In kind it is in vivo. To be noted: T12 20 mg/kg/day in drinking water; athymic mice; FIG. 10A. From the text:
FIG. 10. […] Control, n=43; T12, n=18.

Assay [3] concerns circulating 4T1 cells. The experiment in a line: Cell death / caspase 3 activation in circulating 4T1 cells. In kind it is cell-based, Mouse. How it is done: FIG. 11. T12 targets circulating 4T1 cancer cells. A, Balb/c female mice were inoculated with 4T1 mouse breast cancer cells at mammary fat pads. At day 20 after cell inoculation mice were subjected to PET analysis for metastases detection. White arrows denote metastatic foci at the spinal cord. B, Balb/c female from A were either left untreated (Control), or were treated with T12 in drinking water from day 20. At day 35 blood was seeded in the presence of 6-thioguanine and circulating 4T1 cells selected and further cultured. Shown are phase contrast images of the resulting cultures acquired with an inverted microscope. […] C, circulating 4T1 cells recovered as in B and 4T1 cells were cultured in standard 2D cultures and subjected to RNA extraction, and RNA samples were analyzed by RT-qPCR. Shown are the relative quantities (RQ) of the indicated mRNAs of circulating 4T1 cells using levels from 4T1 cells as reference. […] Dead cells in culture media were quantified by measuring cell size using an automated cell counter (Moxi Z, Orflo). […] E, circulating 4T1 cells recovered as in B or 4T1 cells were cultured in ultra-low binding plates and treated with the indicated concentrations of T12 for 9 days, cells were lysed and analyzed by Western blot using antibodies specific for activated caspase 3. The levels of GAPDH were determined for loading control purposes. […]

In assay [4] the test system is patient-derived cisplatin-resistant mesenchymal NSCLC cells. The following applies: WO/2014/006020; cited from earlier work.
Assay [5] has as its system A549 tumors with epithelial phenotype. To be noted: T12 20 mg/kg/day in drinking water, alone or with doxorubicin 4 mg/kg/week i.p.; previously reported, WO/2014/006020; cited from earlier work.

“Also recorded” adds a separate entry of the source.

As for `COc1ccc(-c2ccc(-c3cccc(C)c3)c(C)c2)c(CCC(=O)O)c1` [T12, 3-[4″-methoxy-3,2′-dimethyl-(1,1′;4′,1″)terphenyl-2″-yl] propionic acid], the “cell viability (LDH activity in culture media)” value in assay [1] is recorded as “reduced cell viability”. The “tumor growth (relative tumor volume)” value in assay [2] is given as “very effective slowing the growth”; in assay [5], “required the synergistic action of doxorubicin to efficiently inhibit tumor growth; also recorded: synergistic with doxorubicin”. In addition, the “sensitivity to T12 after further induction of mesenchymal phenotype” value in assay [3] (4T1 cells inoculated into mice or cultured in low adherent dishes (3D cultures), FIG. 11) was “more sensitivity to T12”. The “sensitivity to T12: dead cells and activated caspase 3” value in assay [3] (24 h (dead cells) or 9 days in ultra-low binding plates (caspase 3), FIG. 11D-E) was “more sensitive and underwent apoptotic cell death (caspase 3 activation)”. In assay [4], the toxicity entry was “high-toxicity”.
